Measured values from PubChem BioAssay (NCI).
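The compound was tested at five concentrations on cells cultured in 96-well plates, with a 48-hour exposure period. The concentration for 50% growth inhibition is given as GI50. The concentration for full growth arrest is given as TGI.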

What was measured:
Test in all cases: NCI anticancer screen, dose series, 48 h
A498 renal = system: A498 renal
HOP-62 NSCLC = system: HOP-62 NSCLC
NCI-H226 lung = system: NCI-H226 lung
NCI/ADR-RES ovarian = system: NCI/ADR-RES ovarian
OVCAR-5 ovarian = system: OVCAR-5 ovarian
RXF 393 renal = system: RXF 393 renal
SF-295 CNS = system: SF-295 CNS
SNB-75 CNS = system: SNB-75 CNS
TK-10 renal = system: TK-10 renal
HL-60(TB) leukemia = system: HL-60(TB) leukemia

| Compound | TGI (A498 renal) [µM] | TGI (HOP-62 NSCLC) [µM] | TGI (NCI-H226 lung) [µM] | TGI (NCI/ADR-RES ovarian) [µM] | TGI (OVCAR-5 ovarian) [µM] | TGI (RXF 393 renal) [µM] | TGI (SF-295 CNS) [µM] | TGI (SNB-75 CNS) [µM] | TGI (TK-10 renal) [µM] | TGI (HL-60(TB) leukemia) [µM] | GI50 (A498 renal) [µM] | GI50 (HL-60(TB) leukemia) [µM] | GI50 (NCI/ADR-RES ovarian) [µM] | GI50 (OVCAR-5 ovarian) [µM] | GI50 (RXF 393 renal) [µM] | GI50 (SF-295 CNS) [µM] | GI50 (SNB-75 CNS) [µM] | GI50 (TK-10 renal) [µM] |
| --- | --- | --- | --- | --- | --- | --- | --- | --- | --- | --- | --- | --- | --- | --- | --- | --- | --- | --- |
| O=C(NC(=O)c1cc(-c2ccccc2)n[nH]1)c1ccccc1 | > 100 | > 100 | > 100 | > 100 | > 100 | > 100 | > 100 | > 100 | > 100 | – | – | – | – | – | – | – | – | – |
| C/C=C1\CN(C(=O)OC(C)(C)C)C1C(=O)OC(C)(C)C (stereo unspecified) | > 100 | > 100 | – | > 100 | > 100 | – | > 100 | – | > 100 | > 100 | – | – | – | – | – | – | – | – |
| CC(=O)Oc1c2c(c3n(c1=O)CCCC3)C(=O)N(c1ccccc1)C2=O | – | > 100 | > 100 | > 100 | > 100 | > 100 | > 100 | > 100 | > 100 | > 100 | – | – | – | – | – | – | – | – |
| Cc1ccc(C2=C(C#N)C(N)OC3=C2COc2ccccc23)cc1 (stereo unspecified) | 50.2 | 34.9 | > 100 | > 100 | – | – | – | – | 44.4 | > 100 | – | – | – | – | – | – | – | – |
| COC(=O)c1c(O)ccc2[nH]c3c(O)c4ccccc4cc3c12 | > 100 | 46.7 | > 100 | 78.4 | > 100 | > 100 | 38.1 | – | > 100 | 37.5 | – | – | – | – | – | – | – | – |
| S=c1[nH]n2c(CCCCCCCCc3nnc4sc(=S)[nH]n34)nnc2s1 | > 100 | > 100 | > 100 | > 100 | > 100 | – | > 100 | > 100 | – | > 100 | – | – | – | – | – | – | – | – |
| Cn1c(CO)ccc1-c1ccc(-c2ccc[se]2)[se]1 | 0.187 | 55.1 | 4.78 | > 100 | – | 26.4 | > 100 | 37.2 | – | > 63.2 | – | – | – | – | – | – | – | – |
| CC(C)=CCC/C(C)=C/COc1c2ccoc2cc2oc(=O)ccc12 | 68.2 | > 100 | 87.6 | > 100 | 75.8 | – | 75.3 | – | > 100 | 50.5 | – | – | – | – | – | – | – | – |
| CCN(CC)CCN1C(=O)c2c(c3c4ccccc4[nH]c3c3ccc4ccccc4c23)C1=O | 2.61 | – | – | 4.15 | 3.09 | 2.83 | 2.03 | 2.4 | 3.34 | 4.35 | 1.32 | 2.04 | 1.59 | 1.64 | 1.42 | 0.722 | 1.17 | 1.77 |
| COc1c2c(c3ccccc3c1O)C1C=CC2C1 (stereo unspecified) | – | 29.7 | – | – | 33.9 | 28.9 | – | – | 36.8 | – | – | – | – | – | – | – | – | – |
| Cc1oc2c(c1C)S(=O)(=O)C(C#N)=C(N(C)C)N2 | > 100 | > 100 | > 100 | > 100 | > 100 | – | > 100 | > 100 | > 100 | – | – | – | – | – | – | – | – | – |
| CCOC(=O)NC(OC)(C(F)(F)F)C(F)(F)F | > 100 | > 100 | > 100 | > 100 | – | > 100 | > 100 | > 100 | > 100 | > 100 | – | – | – | – | – | – | – | – |
